Structures are written as SMILES.

Data set [1] concerns the target NDM-1 (Klebsiella pneumoniae, UniProt C7C422). The data set can be described thus: MBL inhibition, FC-5 fluorescence assay, NDM-1. It is filed as biochemical. The conditions noted are these: FC-5 cephalosporin substrate, fluorescence; ranges of obtained pIC50; read-out: pIC50 NDM-1 (converted). The essentials: (§1)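 Enzyme activity was followed as the initial rate of fluorescence increase (λex 380, λem 460 nm) as FC-5 was cleaved and released its fluorophore. Values come from variable-slope fits of normalized response against log inhibitor concentration.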

In data set [2] the target is IMP-1 (Serratia marcescens, UniProt P52699). The data set can be described thus: MBL inhibition, FC-5 fluorescence assay, IMP-1. It is filed as biochemical. The conditions noted are these: FC-5 cephalosporin substrate, fluorescence; ranges of obtained pIC50; read-out: pIC50 IMP-1 (converted). The essentials: as §1
Data set [3] in a line: Metabolic stability in human hepatocytes. Conditions: cryopreserved human hepatocytes, 1 μM compound, 37° C., up to 90 min, read-out: Metabolic stability in hepatocytes, in vitro t1/2, Human. The class given is in vitro ADME. As to the method: (§2) Metabolic stability assays were performed in cryopreserved human and mouse hepatocytes. The hepatocytes were thawed and added to “Thawing media”, and centrifuged to pellet the hepatocytes. The cell pellet was taken up in Williams medium E (Invitrogen A1217601), the number of cells was calculated and adjusted to 1.0×10^6 cells/mi. The incubation was carried out on a heater-shaker at […], in a 24-well Picoplate (round bottom, PerkinElmer), using an incubation volume of […]. Thus, to obtain a final compound concentration of 1 μM, 0.7 μl of the 1 mM compound stock solution was pipetted to the wells of the plate. Reaction was initiated by adding 700 μl of cell suspension. Samples were incubated at 37° C. for […] and a zero sample was taken, i.e. 100 μl sample was removed to a 96-well plate and the reaction was quenched by adding 100 μl of 100% MeCN containing 50 nM Warfarin as an internal control. Consecutive samples were taken at time-points 5 min, 15 min, 30 min, 60 min, and 90 min. After finishing the experiment, samples were centrifuged at 3000 rpm for 15 min and before analysis by LC-MS/MS (Waters Corp, Milford, MA, USA).

For data set [4], the target named is VIM-2 (Escherichia coli, UniProt Q5U7L7). The data set can be described thus: MBL inhibition, FC-5 fluorescence assay, VIM-2. It is filed as biochemical. Conditions: FC-5 cephalosporin substrate, ranges of obtained pIC50, read-out: pIC50 VIM-2 (converted). The essentials:
as §1

A short description of data set [5]: Plasma protein binding, equilibrium dialysis, human plasma. It is filed as in vitro ADME. Conditions: pH 7.4, equilibrium dialysis (RED) 4 hours at 37° C., read-out: Plasma protein binding, fu, Human. The essentials: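 Compound at 10 μM in plasma dialysed against 67 mM phosphate buffer pH 7.4 for 4 h at 37° C. in RED device; unbound fraction from buffer and plasma levels by LC-MS/MS. Plasma stability checked in parallel over 4 h at 37° C. versus frozen control.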
(In equilibrium dialysis only unbound substance equilibrates across the membrane.)

The nature of data set [6]: Plasma protein binding, equilibrium dialysis, mouse plasma. The class given is in vitro ADME. Conditions: pH 7.4, equilibrium dialysis (RED) 4 hours at 37° C., read-out: Plasma protein binding, fu, Mouse. As to the method:
The fraction of unbound compound (fu) in plasma from human or other animal species was determined by equilibrium dialysis at 37° C. for 4 hours using the Rapid Equilibrium Dialysis (RED) device (ThermoFisher Scientific). The test compound at a concentration of 10 μM was added to plasma and dialyzed against isotonic phosphate buffer (67 mM, pH 7.4) over 4 hours at 37° C. After dialysis, compound concentrations in buffer and plasma were quantified by LC-MS/MS. In parallel the stability of the compound in plasma was determined by incubating drug-spiked plasma (10 μM) at 37° C. for 4 hours, meanwhile the control plasma sample was kept in the freezer. The concentration of the compound in both samples was quantified by LC-MS/MS (Waters Corp, Milford, MA, USA).

For data set [7], the target named is VIM-1 (Pseudomonas aeruginosa, UniProt A0A0F7KYQ8). The data set can be described thus: MBL inhibition, FC-5 fluorescence assay, VIM-1. Conditions: FC-5 cephalosporin substrate, ranges of obtained pIC50, read-out: pIC50 VIM-1 (converted). The class given is biochemical. In outline:
as §1

Data set [8] is described as follows: Metabolic stability in mouse hepatocytes. The class given is in vitro ADME. The conditions noted are these: cryopreserved mouse hepatocytes, 1 μM compound, 37° C., up to 90 min, read-out: Metabolic stability in hepatocytes, in vitro t1/2, Mouse. As to the method:
as §2

Data set [9] relates to Escherichia coli NDM-1. The data set can be described thus: Antibiotic susceptibility testing (MIC), EC NDM-1. It is filed as cell-based. Conditions: agar or broth dilution (CLSI/EUCAST). As to the method: (§3) Antibiotic susceptibility testing was performed using the agar or broth dilution method, in line with the Clinical and Laboratory Standards Institute (CLSI) and European Committee on Antimicrobial Susceptibility Testing (EUCAST) requirements.
On the technique in general: Dilution methods test growth across graded concentrations, often in twofold steps.

Data set [10] concerns Escherichia coli NDM-7. The data set can be described thus: Antibiotic susceptibility testing (MIC), EC NDM-7. The class given is cell-based. The conditions noted are these: agar or broth dilution (CLSI/EUCAST). As to the method:
as §3

Data set [11] relates to Acinetobacter baumannii NDM-1. The data set is described as follows: Antibiotic susceptibility testing (MIC), AB NDM-1. It is filed as cell-based. Conditions: agar or broth dilution (CLSI/EUCAST). As to the method: as §3

Sequence of IMP-1 (P52699 19-246, looked up, species assumed): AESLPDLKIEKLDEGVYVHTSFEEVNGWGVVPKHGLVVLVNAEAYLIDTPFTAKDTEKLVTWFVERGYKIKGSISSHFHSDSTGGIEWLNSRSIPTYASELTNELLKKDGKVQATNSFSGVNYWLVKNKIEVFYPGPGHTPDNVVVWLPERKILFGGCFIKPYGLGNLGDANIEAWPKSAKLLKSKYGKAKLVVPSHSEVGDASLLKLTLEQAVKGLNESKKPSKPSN
Sequence of NDM-1 (C7C422 29-270, looked up, species assumed): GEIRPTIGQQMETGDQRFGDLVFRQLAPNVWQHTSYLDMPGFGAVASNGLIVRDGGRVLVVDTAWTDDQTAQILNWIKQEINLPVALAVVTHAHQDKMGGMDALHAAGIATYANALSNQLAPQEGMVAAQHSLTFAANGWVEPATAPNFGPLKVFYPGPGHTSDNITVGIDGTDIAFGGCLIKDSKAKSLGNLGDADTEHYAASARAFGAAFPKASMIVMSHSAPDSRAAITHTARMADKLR

Regarding `CC(NC(=O)[C@H]1CC[C@H](CN)CC1)c1cccc2c(-c3ccc(CS(C)(=O)=O)c(F)c3)c(C(=O)O)[nH]c12` (mixture of isomers) [IC-99, 7-[1-[[4-(Aminomethyl)cyclohexanecarbonyl]amino]ethyl]-3-[3-fluoro-4-(methylsulfonylmethyl)phenyl]-1H-indole-2-carboxylic acid], the IC50 in data set [1] is 1 to 10 nM; in [2] it was greater than 10 nM; in [4], less than 0.1 nM; in data set [7] it was greater than 10 nM. For the same molecule, the half-life at 1 μM in [3] and in data set [8] was greater than 6.67 h each time. Further, the fraction unbound at 4 h, 10 μM in data set [5] and in data set [6] was 0.05 to 0.25 throughout.
`C[C@H](OCc1ccc(CN)cc1)c1cccc2c(-c3ccc(CS(C)(=O)=O)c(Cl)c3)c(C(=O)O)[nH]c12` (single isomer, unassigned) [IC-87]: the IC50 in data set [1] is less than 0.1 nM; in data set [2], 1 to 10 nM; in data set [4] it was 0.1 to 1 nM; in [7] it was 1 to 10 nM. The half-life at 1 μM is greater than 6.67 h in data set [3] and less than 2.5 h in data set [8]. The values for the fraction unbound at 4 h, 10 μM in data set [5] and in data set [6] were 0.005 to 0.05 and 0.05 to 0.25, respectively.
Take `C[C@@H](c1cccc2c(-c3ccc(=O)[nH]c3)c(C(=O)O)[nH]c12)N1C[C@]2(C[C@@H](CN)C2)OC1=O` [IC-15, 7-((S)-1-((2S,4r)-2-(aminomethyl)-6-oxo-5-oxa-7-azaspiro[3.4]octan-7-yl)ethyl)-3-(6-oxo-1,6-dihydropyridin-3-yl)-1H-indole-2-carboxylic acid]: in [9], the “MIC values EC NDM-1” value was “B (B MIC values 2 ÷ 8)”. Further, the fraction unbound at 4 h, 10 μM in data set [5] was in the range of 0.05 to 0.25; in [6], 0.005 to 0.05. Moreover, in [10], the “MIC values EC NDM-7” value was “A (A = MIC values ≤ 1)”. For the same molecule, the “MIC values AB NDM-1” value in data set [11] is listed as “C (C = MIC values > 8)”.
With `C[C@@H](c1cccc2c(-c3ccc(CS(C)(=N)=O)c(F)c3)c(C(=O)O)[nH]c12)N1C[C@]2(C[C@@H](CN)C2)OC1=O` (stereo partly drawn) [IC-19, 7-((1S)-1-(2-(aminomethyl)-6-oxo-5-oxa-7-azaspiro[3.4]octan-7-yl)ethyl)-3-(3-fluoro-4-((S-methylsulfonimidoyl)methyl)phenyl)-1H-indole-2-carboxylic acid], the IC50 in data set [1] was less than 0.1 nM; in [2], greater than 10 nM; in data set [4], 0.1 to 1 nM; in [7], 0.1 to 1 nM. Besides, in data set [9], the “MIC values EC NDM-1” value is reported as “B (B MIC values 2 ÷ 8)”. Moreover, the fraction unbound at 4 h, 10 μM in data set [5] is greater than 0.25; in [6], 0.05 to 0.25. In data set [10], the “MIC values EC NDM-7” value is recorded as “A (A = MIC values ≤ 1)”. For the same molecule, the “MIC values AB NDM-1” value in data set [11] was “B (B MIC values 2 ÷ 8)”.
With `C[C@@H](c1cccc2c(-c3c(F)cc(NS(C)(=O)=O)cc3F)c(C(=O)O)[nH]c12)N1C[C@]2(C[C@@H](CN)C2)OC1=O` [IC-21, 7-((S)-1-((2S,4r)-2-(aminomethyl)-6-oxo-5-oxa-7-azaspiro[3.4]octan-7-yl)ethyl)-3-(2,6-difluoro-4-(methylsulfonamido)phenyl)-1H-indole-2-carboxylic acid], the IC50 in data set [1] was 1 to 10 nM; in [2], greater than 10 nM; in data set [4], 1 to 10 nM; in data set [7] it was greater than 10 nM. Further, the “MIC values EC NDM-1” value in data set [9] is “C (C = MIC values > 8)”. Also, the fraction unbound at 4 h, 10 μM in data set [5] was in the range of 0.05 to 0.25; in data set [6], 0.005 to 0.05. For the same molecule, in [10], the “MIC values EC NDM-7” value is listed as “B (B MIC values 2 ÷ 8)”. Also, the “MIC values AB NDM-1” value in data set [11] is “C (C = MIC values > 8)”.
With `C[C@@H](c1cccc2c(-c3ccc4c(c3)CNC4=O)c(C(=O)O)[nH]c12)N1C[C@]2(C[C@@H](CN)C2)OC1=O` [IC-22, 7-((S)-1-((2R,4s)-2-(aminomethyl)-6-oxo-5-oxa-7-azaspiro[3.4]octan-7-yl)ethyl)-3-(1-oxoisoindolin-5-yl)-1H-indole-2-carboxylic acid], the IC50 in data set [1] is 0.1 to 1 nM; in [2], greater than 10 nM; in [4], less than 0.1 nM; in data set [7], 1 to 10 nM. Besides, the “MIC values EC NDM-1” value in data set [9] is on record as “A (A = MIC values ≤ 1)”. For the same molecule, the fraction unbound at 4 h, 10 μM in data set [5] lay in the range of 0.05 to 0.25; in data set [6], 0.005 to 0.05. In addition, the “MIC values EC NDM-7” value in data set [10] is “A (A = MIC values ≤ 1)”. For the same molecule, in [11], the “MIC values AB NDM-1” value is given as “B (B MIC values 2 ÷ 8)”.
`C[C@@H](c1cccc2c(-c3ccc(NS(=O)(=O)C4COC4)c(F)c3)c(C(=O)O)[nH]c12)N1C[C@]2(C[C@@H](CN)C2)OC1=O` [IC-24, 7-((S)-1-((2S,4r)-2-(aminomethyl)-6-oxo-5-oxa-7-azaspiro[3.4]octan-7-yl)ethyl)-3-(3-fluoro-4-(oxetane-3-sulfonamido)phenyl)-1H-indole-2-carboxylic acid]: the IC50 in data set [1] was less than 0.1 nM; in data set [2] it was greater than 10 nM; in data set [4] it was 0.1 to 1 nM; in data set [7], 1 to 10 nM. The “MIC values EC NDM-1” value in data set [9] is reported as “A (A = MIC values ≤ 1)”. Further, the fraction unbound at 4 h, 10 μM in data set [5] and in data set [6] was 0.05 to 0.25 throughout. The “MIC values EC NDM-7” value in [10] is “A (A = MIC values ≤ 1)”. The “MIC values AB NDM-1” value in data set [11] is listed as “B (B MIC values 2 ÷ 8)”.
Regarding `C[C@@H](c1cccc2c(-c3c(F)cc(NS(C)(=O)=O)cc3F)c(C(=O)O)[nH]c12)n1cc(CN2CC(N)C2)oc1=O` [IC-51, 7-[(1S)-1-{5-[(3-Aminoazetidin-1-yl)methyl]-2-oxo-2,3-dihydro-1,3-oxazol-3-yl}ethyl]-3-(2,6-difluoro-4-methanesulfonamidophenyl)-1H-indole-2-carboxylic acid], the IC50 in data set [1] was 1 to 10 nM; in [2], greater than 10 nM; in [4], 1 to 10 nM; in [7], greater than 10 nM. Moreover, in data set [9], the “MIC values EC NDM-1” value is “C (C = MIC values > 8)”. Also, the fraction unbound at 4 h, 10 μM lay in the range of 0.05 to 0.25 in data set [5] and 0.005 to 0.05 in [6]. Besides, the “MIC values EC NDM-7” value in [10] is “B (B MIC values 2 ÷ 8)”. In addition, the “MIC values AB NDM-1” value in [11] is listed as “C (C = MIC values > 8)”.
Regarding `C[C@@H](c1cccc2c(-c3ccc(CS(C)(=O)=O)c(F)c3)c(C(=O)O)[nH]c12)n1cc(CN2CC(C)(N)C2)oc1=O` [IC-68, (S)-7-(1-(5-((3-amino-3-methylazetidin-1-yl)methyl)-2-oxooxazol-3(2H)-yl)ethyl)-3-(3-fluoro-4-((methylsulfonyl)methyl)phenyl)-1H-indole-2-carboxylic acid], the IC50 in [1] was less than 0.1 nM; in data set [2], greater than 10 nM; in data set [4], 0.1 to 1 nM; in [7] it was 1 to 10 nM. Also, the half-life at 1 μM in data set [3] and in [8] was greater than 6.67 h in each case. Further, the “MIC values EC NDM-1” value in data set [9] is on record as “A (A = MIC values ≤ 1)”. The “MIC values EC NDM-7” value in data set [10] was “A (A = MIC values ≤ 1)”. The “MIC values AB NDM-1” value in data set [11] is on record as “B (B MIC values 2 ÷ 8)”.

These data come from patent US20240246913A1, “2-CARBOXYL-INDOLE INHIBITORS OF METALLO-BETA-LACTAMASES” (Oxford University Innovation Limited, priority 2021, published 2024).
